Data on 16 compounds can be found in article PMC11855230, “Oligoethylene Phosphoramidate‐Based Kinase Inhibitor Prodrugs – Solubility, Enzyme Inhibition, and Hydrolysis” (Chemistry (Weinheim an Der Bergstrasse, Germany), 2025).

Data set [1] has as its target T1, cyclin‐dependent kinase 4 (CDK4) (Homo sapiens, UniProt P11802).
T1 construct: purchased biomol
The data set can be described thus: CDK4 cell free enzyme (kinase) inhibition assay, luminescence. The data set is classed as biochemical. The settings on record: 1 % DMSO, duplicates. How it is done: (§1) Apart from solubility and self‐assembly, we investigate the inhibitory potential against the respectively targeted receptors.
Enzyme Binding Assays (CDK4):[21] […] The instructions are followed with some specifications: DTT (10 μL of 1 M DTT to 1 mL buffer) is added to the buffer solution and the assay is performed with 1 % DMSO in the final reaction volume. Serial dilutions of inhibitor (5 μL) are mixed with 20 μL enzyme (10 ng/μL), 5 μL of 10x CDK4 substrate peptide and 1 μL ATP solution (500 μM) in a 96‐well plate. The blank contains no enzyme and no inhibitor. The positive control contains enzyme but no inhibitor. The receptor inhibitory rate is calculated from the luminescence as IC50. […] Luminescence is recorded on Promega GloMax Navigator Microplate Luminometer. Samples are prepared in duplicates.

Data set [2] can be described thus: Dynamic light scattering (DLS) of drug‐conjugates in water. The data set is classed as physicochemical. The settings on record: for PDI / hydrodynamic diameter: DLS in water, at the concentration given per compound (Figures S2–S5); for hydrodynamic diameter d: DLS in water at critical solution concentration c sol, 25 °C. The procedure:
To study, whether self‐assembly into micelles might have an effect on the solubility limit of the prodrugs, we perform dynamic light scattering (DLS) of the drug‐conjugates in water. […] Micelles below 6 nm (Cer‐OEG8 , Cri‐OEG3 , Cri‐OEG8 , Pal‐OEG3 , Rib‐OEG2 , and Rib‐OEG3 ) are potentially affected by renal clearance.
Dynamic Light Scattering (DLS): Possible self‐assemblies are investigated with DLS Nano‐Zetasizer (Malvern Instruments) at 25 °C with a scattering angle of 173° at λ=633 nm.

Data set [3] can be described thus: Solubility limit in water (kinetic solubility) by UV/Vis optical density at 600 nm. The data set is classed as physicochemical. The settings on record: kinetic from dmso stock, absorption at 600 nm, read-out: c sol (water), solubility limit in water. From the text:
With all purified compounds in hand, we start to analyze the different properties of the conjugates and discuss the influence of the OEG‐chain lengths. We determine the solubility in water with UV/Vis spectroscopy by measuring the optical density at 600 nm. The absorption (A) is plotted against varying concentration (c) of the drug conjugates (see Figure S1). In the range, in which the drug and their conjugates are still soluble, A can be fitted linearly. When the solubility limit is reached, the drug crashes out of solution leading to scattering and reduced transmission manifesting a threshold, upon which the increase in absorption is fitted with a second line of higher slope. The intersection between the two linear fits gives the critical concentration for the kinetic solubility c sol. Detailed solubility plots can be found in the supporting information (see Figure S1). In our previous study with n=4, the solubility of all three kinase inhibitor prodrugs in water is improved over the native drug. However, the extent of improvement varies between the different kinase inhibitor prodrugs. For a better overview, we have included the performance of our previous study (see Figure 2).[21] […] We observe an improvement of solubility upon conjugation with all of our different OEG‐phosphates.
UV‐Vis Spectroscopy: Changes in solubility are measured with a Lambda 365 spectrometer by PerkinElmer supplied with UV WinLab software. Samples are prepared in water and placed in a 1 cm quartz cuvette.

For data set [4], the target named is T2, ROS proto‐oncogene 1 (ROS1) (Homo sapiens, UniProt P08922).
T2 construct: purchased biomol
T2 sequence (P08922 28-2347): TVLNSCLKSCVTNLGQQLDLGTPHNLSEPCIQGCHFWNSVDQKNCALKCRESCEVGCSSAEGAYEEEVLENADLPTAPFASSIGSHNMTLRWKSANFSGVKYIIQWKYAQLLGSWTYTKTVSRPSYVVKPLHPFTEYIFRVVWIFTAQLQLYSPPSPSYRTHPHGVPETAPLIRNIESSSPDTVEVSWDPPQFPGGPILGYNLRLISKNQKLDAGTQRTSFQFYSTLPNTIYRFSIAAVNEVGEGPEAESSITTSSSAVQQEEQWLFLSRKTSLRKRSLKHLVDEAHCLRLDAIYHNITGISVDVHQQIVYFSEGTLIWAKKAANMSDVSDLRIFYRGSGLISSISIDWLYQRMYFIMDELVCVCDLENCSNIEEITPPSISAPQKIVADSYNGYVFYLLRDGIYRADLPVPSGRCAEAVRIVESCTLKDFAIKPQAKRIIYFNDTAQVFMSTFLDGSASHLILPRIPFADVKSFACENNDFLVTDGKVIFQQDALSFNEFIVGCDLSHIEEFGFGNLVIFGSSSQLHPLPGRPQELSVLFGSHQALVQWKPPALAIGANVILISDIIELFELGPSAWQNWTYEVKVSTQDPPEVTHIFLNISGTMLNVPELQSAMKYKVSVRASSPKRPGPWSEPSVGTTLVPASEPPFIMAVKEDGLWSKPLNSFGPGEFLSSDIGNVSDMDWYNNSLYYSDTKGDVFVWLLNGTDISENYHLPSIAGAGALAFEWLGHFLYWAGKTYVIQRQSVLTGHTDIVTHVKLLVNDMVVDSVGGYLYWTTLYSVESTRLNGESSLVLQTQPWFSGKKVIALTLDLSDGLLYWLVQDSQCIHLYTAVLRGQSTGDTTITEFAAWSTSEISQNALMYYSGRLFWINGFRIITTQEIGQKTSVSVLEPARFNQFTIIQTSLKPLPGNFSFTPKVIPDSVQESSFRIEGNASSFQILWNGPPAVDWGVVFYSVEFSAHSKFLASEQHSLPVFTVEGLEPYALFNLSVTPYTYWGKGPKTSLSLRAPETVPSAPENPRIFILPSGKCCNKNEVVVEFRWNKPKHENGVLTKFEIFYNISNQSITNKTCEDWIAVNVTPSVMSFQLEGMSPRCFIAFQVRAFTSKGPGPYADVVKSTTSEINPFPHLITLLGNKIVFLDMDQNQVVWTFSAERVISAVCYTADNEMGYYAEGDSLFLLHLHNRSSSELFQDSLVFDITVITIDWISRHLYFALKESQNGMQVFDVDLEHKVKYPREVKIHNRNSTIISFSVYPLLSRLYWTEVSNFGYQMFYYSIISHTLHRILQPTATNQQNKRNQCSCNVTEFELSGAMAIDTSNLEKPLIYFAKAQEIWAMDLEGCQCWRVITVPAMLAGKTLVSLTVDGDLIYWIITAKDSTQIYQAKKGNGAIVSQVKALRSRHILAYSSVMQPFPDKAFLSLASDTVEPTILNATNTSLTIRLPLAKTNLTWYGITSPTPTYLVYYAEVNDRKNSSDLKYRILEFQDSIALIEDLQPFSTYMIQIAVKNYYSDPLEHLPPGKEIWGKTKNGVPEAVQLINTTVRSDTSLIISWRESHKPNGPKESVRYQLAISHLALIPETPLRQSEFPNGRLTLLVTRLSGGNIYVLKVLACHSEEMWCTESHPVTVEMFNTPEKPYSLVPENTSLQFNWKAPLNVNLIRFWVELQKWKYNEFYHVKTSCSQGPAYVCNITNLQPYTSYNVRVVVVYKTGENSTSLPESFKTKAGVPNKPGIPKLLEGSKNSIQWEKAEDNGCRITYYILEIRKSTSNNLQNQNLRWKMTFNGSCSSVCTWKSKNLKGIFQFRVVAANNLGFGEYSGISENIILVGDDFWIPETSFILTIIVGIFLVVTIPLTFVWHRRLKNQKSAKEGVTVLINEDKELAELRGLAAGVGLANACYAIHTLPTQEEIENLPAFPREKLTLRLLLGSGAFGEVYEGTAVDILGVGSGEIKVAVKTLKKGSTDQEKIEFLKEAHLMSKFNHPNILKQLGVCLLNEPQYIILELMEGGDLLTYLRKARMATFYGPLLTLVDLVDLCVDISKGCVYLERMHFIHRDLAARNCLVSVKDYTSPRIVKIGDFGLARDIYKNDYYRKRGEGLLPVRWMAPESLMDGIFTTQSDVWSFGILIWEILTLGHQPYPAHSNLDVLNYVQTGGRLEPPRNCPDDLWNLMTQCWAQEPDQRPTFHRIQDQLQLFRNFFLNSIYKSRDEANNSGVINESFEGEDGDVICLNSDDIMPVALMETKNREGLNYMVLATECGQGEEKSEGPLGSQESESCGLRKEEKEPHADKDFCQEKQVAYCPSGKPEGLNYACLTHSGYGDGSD
As to the kind of experiment: ROS1 cell free enzyme (kinase) inhibition assay, luminescence. The data set is classed as biochemical. The settings on record: 1 % DMSO, duplicates. The procedure: as §1
Enzyme Binding Studies (ROS1):[21] ROS1 assays are performed with the following substances: Cer‐OEG2 , Cer‐OEG3 , Cer‐OEG8 , Cri‐OEG2 , Cri‐OEG3 and Cri‐OEG8 . The instructions are followed with some specifications: DTT (10 μL of 1 M DTT to 1 mL buffer) is added to the buffer solution and the assay is performed with 1 % DMSO in the final reaction volume. Serial dilutions of inhibitor (5 μL) are mixed with 20 μL enzyme (5 ng/μL), 5 μL of IGF‐1Rtide (1 mg/mL) and 1 μL ATP solution (500 μM) in a 96‐well plate. The blank contains no enzyme and no inhibitor. The positive control contains enzyme but no inhibitor. The receptor inhibitory rate is calculated from the luminescence as IC50. […] Luminescence is recorded on Promega GloMax Navigator Microplate Luminometer. Samples are prepared in duplicates.

Another data set has as its system HeLa cells. The data set can be described thus: Cell uptake in HeLa cells by confocal laser scanning microscopy (CLSM). The class given is cell-based. Conditions: 25 μM, 23 h, excitation 405 nm. How it is done:
Altogether an OEG chain length of n=4 seems to be favorable for producing prodrugs with improved solubility from kinase inhibitors. […] Here we therefore concentrate on Rib‐OEG4 . […] The drug and its conjugate are exited at 405 nm, leading to weak fluorescence of the drugs.
Uptake is followed by Confocal for 23 h using Leica TCS SP8 Lightning confocal microscope with an OnkoLab incubator chamber with a constant temperature of 37 °C and a 5 % CO2 atmosphere at 95 % humidity (gas flow: 0.1 L/min). Drug and drug‐OEG conjugate is excited at 405 nm.

On the set-up of data set [5]: method as in PMID 38923708. The settings on record: kinetic solubility, cited from earlier work.
Data set [6] can be described thus: pH dependent hydrolysis / drug release by HPLC. The class given is physicochemical. The settings on record: acetate buffer, pH 3, 37 °C. From the text:
The working principle of a prodrug is to improve solubility and circulation time and not necessarily to improve binding to the target. However, binding should of course become important when the prodrug has arrived at the designated site and the promoiety is cleaved to release the native drug. In case of the phosphoramidate linked OEG chains, release of the native drug is induced by hydrolysis at low pH.[21, 28, 29, 30, 31, 32] The stability of the phosphoramidate linker and therefore its half‐life depends on the chemical surrounding in the molecule.[28, 29] Since we only change distant substituents by varying the binding motif of the respective kinase inhibitor, we expect only minor influence on the rate of hydrolysis. We investigate the samples at pH 3, 4, 5, 6, and 7.4 over a course of 72 h at 37 °C using high pressure liquid chromatography (HPLC) (see Figure S10–13 and Table S1–11). […]
High Performance Liquid Chromatography (HPLC): Drug release is monitored on Agilent 1260 Infinity containing the following modules: G1311B Quat Pump, G1329B ALS, G1365D MWD VL in combination with a Jetstream 2 plus column thermostat. […] Flow rate is set to 0.3 mL/min and absorption is detected at 254 nm. […]
pH Dependent Hydrolysis:[21] […] Drug release percentages are calculated form the ratio of the peak area of drug and drug‐OEG conjugate for 0, 3, 6, 24, 48 and 72 h.

Setting [7] is: values marked a from previous publication ref 21.

Values after ≈ are worked out from the molar mass of the structure shown. Values joined by “and” are separate entries in the source; they are usually repeats but may differ in a detail not shown here. Equal values may be shown once. Read-outs that look alike come from different tables or passages of the source. Marks after values point to notes of the source that are not given here. Bounds are passed on as bounds.

T1 sequence (P11802 whole entry): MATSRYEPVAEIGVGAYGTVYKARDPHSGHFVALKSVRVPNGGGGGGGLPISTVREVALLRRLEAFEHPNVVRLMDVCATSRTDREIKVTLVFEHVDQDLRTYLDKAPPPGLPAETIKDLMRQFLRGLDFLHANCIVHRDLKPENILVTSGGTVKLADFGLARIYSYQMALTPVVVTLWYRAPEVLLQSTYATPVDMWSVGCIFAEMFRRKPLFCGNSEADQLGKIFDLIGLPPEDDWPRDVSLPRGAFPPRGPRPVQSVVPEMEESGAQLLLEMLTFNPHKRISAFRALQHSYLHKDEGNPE
T1 sequence (P30281 whole entry partner): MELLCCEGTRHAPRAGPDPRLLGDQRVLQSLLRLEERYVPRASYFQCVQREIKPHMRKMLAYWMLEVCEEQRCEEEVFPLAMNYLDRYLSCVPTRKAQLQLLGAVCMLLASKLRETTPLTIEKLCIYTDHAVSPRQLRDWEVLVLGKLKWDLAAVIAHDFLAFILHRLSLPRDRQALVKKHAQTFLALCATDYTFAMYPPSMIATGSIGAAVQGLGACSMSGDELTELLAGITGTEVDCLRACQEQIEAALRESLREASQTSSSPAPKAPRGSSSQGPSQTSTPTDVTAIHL

With `COCCOCCOCCOP(=O)(OCCOCCOCCOC)N1CCN(c2ccc(Nc3ncc4c(C)c(C(C)=O)c(=O)n(C5CCCC5)c4n3)nc2)CC1` [Pal‐OEG3], the IC50 (as a rule, the concentration needed to halve the response being measured) in data set [1] was 215 to 270 nM and 215 nM. Moreover, in data set [2], the PDI is recorded as 0.74 and the hydrodynamic diameter stood at 5 nm. Moreover, in data set [3], the solubility (commonly how much of the substance goes into solution per volume) came to 8.71 mM (≈ 7140 µg/mL).
Turning to `COCCOCCOCCOP(=O)(OCCOCCOCCOC)N1CCC(c2cc(OC(C)C)c(Nc3ncc(Cl)c(Nc4ccccc4S(=O)(=O)C(C)C)n3)cc2C)CC1` [Cer‐OEG3], in data set [2], the PDI came out at 0.05 and the hydrodynamic diameter is listed as 279 nm. This compound also displayed an IC50 in data set [4] of 45 nM.
In the case of `COCCOCCOP(=O)(OCCOCCOC)N1CCN(c2ccc(Nc3ncc4c(C)c(C(C)=O)c(=O)n(C5CCCC5)c4n3)nc2)CC1` [Pal‐OEG2], in data set [1], the midpoint of inhibition, the IC50, lay at 1000 nM. In data set [2], this compound had a PDI of 0.17 and a hydrodynamic diameter of 264 nm.
In data set [2], `COCCOCCOCCOCCOCCOCCOCCOCCOP(=O)(OCCOCCOCCOCCOCCOCCOCCOCCOC)N1CCC(n2cc(-c3cnc(N)c(O[C@H](C)c4c(Cl)ccc(F)c4Cl)c3)cn2)CC1` [Cri‐OEG8] had a PDI of 0.36 and a hydrodynamic diameter of 3.3 nm. Also, the solubility in data set [3] is not above 4.62 mM. This compound came in with an IC50 in data set [4] of 140 nM.
Turning to `COCCOCCOCCOCCOCCOCCOCCOCCOP(=O)(OCCOCCOCCOCCOCCOCCOCCOCCOC)N1CCN(c2ccc(Nc3ncc4c(C)c(C(C)=O)c(=O)n(C5CCCC5)c4n3)nc2)CC1` [Pal‐OEG8], the IC50 in data set [1] was 215 to 270 nM and 270 nM. In data set [2], this compound had a hydrodynamic diameter d of 596 nm, a PDI of 0.33 and a hydrodynamic diameter of 596 nm. Moreover, the solubility in data set [3] was not above 3.16 mM.
Take `CN(C)C(=O)c1cc2cnc(Nc3ccc(N4CCNCC4)cn3)nc2n1C1CCCC1` [Ribociclib, reference compound]: the “uptake in HeLa cells” value in the data set with HeLa cells was “taken up by the cells”. In data set [3], the solubility amounted to 0.49 mM (≈ 213 µg/mL).
In the case of `CC(=O)c1c(C)c2cnc(Nc3ccc(N4CCNCC4)cn3)nc2n(C2CCCC2)c1=O` [Palbociclib], the “c sol (water), solubility limit in water” value in data set [5] (setting [7]) is listed as ≤0.02 ^a mM.
In data set [2], `COCCOCCOCCOCCOCCOCCOCCOCCOP(=O)(OCCOCCOCCOCCOCCOCCOCCOCCOC)N1CCC(c2cc(OC(C)C)c(Nc3ncc(Cl)c(Nc4ccccc4S(=O)(=O)C(C)C)n3)cc2C)CC1` [Cer‐OEG8] yielded a PDI of 0.25 and a hydrodynamic diameter of 4.9 nm. In addition, in data set [3], the solubility worked out at 1.75 mM (≈ 2400 µg/mL). For the same compound, the half-life (in general, how long it takes for the measured level to halve) in data set [6] is 50 h. The compound further came in with a concentration for half-maximal inhibition (IC50) in data set [4] of 100 nM.
`C[C@@H](Oc1cc(-c2cnn(C3CCNCC3)c2)cnc1N)c1c(Cl)ccc(F)c1Cl` [Crizotinib]: the “c sol (water), solubility limit in water” value in data set [5] (setting [7]) is listed as ≤0.77 ^a mM.
As to `Cc1cc(Nc2ncc(Cl)c(Nc3ccccc3S(=O)(=O)C(C)C)n2)c(OC(C)C)cc1C1CCNCC1` [Ceritinib], the “c sol (water), solubility limit in water” value in data set [5] (values marked a from previous publication ref 21, listed as Ceritninib) is 0.93 mM; in data set [5] (setting [7]), ≤0.93^a mM.
With `COCCOCCOP(=O)(OCCOCCOC)N1CCC(n2cc(-c3cnc(N)c(O[C@H](C)c4c(Cl)ccc(F)c4Cl)c3)cn2)CC1` [Cri‐OEG2], in data set [2], the PDI is 0.03 and the hydrodynamic diameter was found to be 151 nm. In data set [4], this compound returned a 50% inhibitory concentration (IC50) of 50 nM.
In data set [2], `COCCOCCOCCOP(=O)(OCCOCCOCCOC)N1CCC(n2cc(-c3cnc(N)c(O[C@H](C)c4c(Cl)ccc(F)c4Cl)c3)cn2)CC1` [Cri‐OEG3] came in with a PDI of 0.02 and a hydrodynamic diameter of 3.7 nm. Also, the solubility in data set [3] is 19.1 mM (≈ 15700 µg/mL). In data set [4], this compound yielded an IC50 of 45 nM.
With `COCCOCCOCCOCCOCCOCCOCCOCCOP(=O)(OCCOCCOCCOCCOCCOCCOCCOCCOC)N1CCN(c2ccc(Nc3ncc4cc(C(=O)N(C)C)n(C5CCCC5)c4n3)nc2)CC1` [Rib‐OEG8], inhibition in data set [1] was half-maximal at 400 nM (IC50). In addition, in data set [2], the hydrodynamic diameter d amounted to 64 nm, the PDI is reported as 0.22 and the hydrodynamic diameter was found to be 64 nm. Moreover, in data set [3], the solubility was 1.52 mM (≈ 1900 µg/mL).
Regarding `COCCOCCOP(=O)(OCCOCCOC)N1CCC(c2cc(OC(C)C)c(Nc3ncc(Cl)c(Nc4ccccc4S(=O)(=O)C(C)C)n3)cc2C)CC1` [Cer‐OEG2], in data set [2], the PDI is recorded as 0.46 and the hydrodynamic diameter turned out to be 565 nm. The same compound had an IC50 in data set [4] of 100 nM.
`COCCOCCOP(=O)(OCCOCCOC)N1CCN(c2ccc(Nc3ncc4cc(C(=O)N(C)C)n(C5CCCC5)c4n3)nc2)CC1` [Rib‐OEG2] displayed an IC50 in data set [1] of 110 nM. For the same compound, in data set [2], the PDI is reported as 0.22 and the hydrodynamic diameter is listed as 2.5 nm. Further, in data set [3], the solubility was 12.3 mM (≈ 8840 µg/mL).
For `COCCOCCOCCOP(=O)(OCCOCCOCCOC)N1CCN(c2ccc(Nc3ncc4cc(C(=O)N(C)C)n(C5CCCC5)c4n3)nc2)CC1` [Rib‐OEG3] the same measures were 370 nM, 0.15, 1.8 nm and 13.5 mM (≈ 10900 µg/mL).
